Results as given in ChEMBL document CHEMBL5257016, “Rho Kinase (ROCK) Inhibitors and Their Therapeutic Potential” (J Med Chem, 2016).
Values belong to the molecule of their own block, whether it stands above or below them.

Experiments:
[1] = biological target: T1, Rho-associated protein kinase 2 (Homo sapiens, UniProt O75116); assay: Inhibition of ROCK2 (unknown origin) using STK2 as substrate incubated for 4 hrs by HTRF assay
[2] = biological target: cAMP-dependent protein kinase (PKA) (Homo sapiens, UniProt P22694+P17612+P22612); assay: Inhibition of PKA (unknown origin); assay type: protein assay
[3] = biological target: T2, Rho-associated protein kinase 1 (Homo sapiens, UniProt Q13464); assay: Inhibition of human ROCK1
[4] = biological target: T1, Rho-associated protein kinase 2; assay: Inhibition of ROCK2 (unknown origin)
[5] = biological target: T2, Rho-associated protein kinase 1; assay: Inhibition of ROCK1 (unknown origin)
Mus musculus [6] = organism: Mus musculus; assay: Antidiabetic activity in oxygen induced retinopathy mouse model assessed as decrease in pathological neovascularization at 0.4 %, thrice daily for 6 days by microscopic analysis; assay type: functional; parameters: scale not given: the % may be the effect or the level left; settings: time 6 day
Mus musculus [7] = organism: Mus musculus; assay: Antidiabetic activity in oxygen induced retinopathy mouse model assessed as decrease in fluorescein leakage at 0.8 %, thrice daily for 6 days by fluorescein angiography; assay type: functional; parameters: scale not given: the % may be the effect or the level left; settings: time 6 day
Mus musculus [8] = organism: Mus musculus; assay: Antidiabetic activity in oxygen induced retinopathy mouse model assessed as decrease in pathological neovascularization at 0.8 %, thrice daily for 6 days by microscopic analysis; assay type: functional; parameters: scale not given: the % may be the effect or the level left; settings: time 6 day
[9] = biological target: T1, Rho-associated protein kinase 2; assay: Inhibition of GST-tagged ROCK2 (5 to 554 residues) (unknown origin) using S6-peptide as substrate preincubated for 15 mins followed by 33P-ATP addition and measured after 120 mins by scintillation counter analysis
[10] = biological target: T2, Rho-associated protein kinase 1; assay: Inhibition of GST-tagged ROCK1 (1 to 535 residues) (unknown origin) using S6-peptide as substrate preincubated for 15 mins followed by 33P-ATP addition and measured after 120 mins by scintillation counter analysis
[11] = biological target: T2, Rho-associated protein kinase 1; assay: Inhibition of ROCK1 (unknown origin) assessed as inhibition constant
[12] = biological target: T1, Rho-associated protein kinase 2; assay: Inhibition of ROCK2 (unknown origin) assessed as inhibition constant
[13] = biological target: T2, Rho-associated protein kinase 1; assay: Inhibition of human recombinant ROCK1 using S6-peptide as substrate as substrate preincubated for 10 mins followed by 33P-labeled ATP addition and measured after 20 mins by Micro-Beta counter analysis
[14] = biological target: Nicotinamide phosphoribosyltransferase (Homo sapiens, UniProt P43490); assay: Inhibition of recombinant human C-terminally-His tagged NAMPT incubated for 2 to 3 hrs by TR-FRET assay
[15] = Induction of neurogenesis in human Embryonic stem cells assessed as cell proliferation incubated for 4 days by CellTiterGlo luminescence assay; assay type: functional, cell-based; settings: 96 h
[16] = Stability of compound in human plasma assessed as half life at 1 uM by LC-MS/MS analysis; assay type: ADME, cell-free
[17] = biological target: T1, Rho-associated protein kinase 2; assay: Inhibition of ROCK2 (unknown origin) using 33P-ATP as substrate and measured after 120 mins by radiometric analysis
[18] = biological target: Rho-associated protein kinase 2 (Rattus norvegicus, UniProt Q62868); assay: Inhibition of ROCK2 in rat A7R5 cells assessed as MLC phosphorylation at T18/S19 by ELISA; assay type: cell-based
[19] = biological target: T1, Rho-associated protein kinase 2; assay: Inhibition of human recombinant ROCK2 using 5FAM-AKRRRLSSLRA-COOH as substrate preincubated for 10 mins followed by substrate addition in presence of ATP and measured after 45 mins by TR-FRET assay
[20] = biological target: RAC-beta serine/threonine-protein kinase (Homo sapiens, UniProt P31751); assay: Inhibition of AKT2 (unknown origin)
[21] = Inhibition of p70S6K (unknown origin); parameters: species or system Homo sapiens
[22] = biological target: Ribosomal protein S6 kinase alpha-1 (Homo sapiens, UniProt Q15418); assay: Inhibition of RSK1 (unknown origin)
[23] = biological target: RAC-alpha serine/threonine-protein kinase (Homo sapiens, UniProt P31749); assay: Inhibition of AKT1 (unknown origin)
[24] = Oral bioavailability of Wistar rat at 0.910 mg/kg and measured upto 7 hrs by HPLC/MS analysis; assay type: ADME, organism-based; settings: in vivo, dose 0.91 mg/kg
[25] = Clearance of Wistar rat at 0.910 mg/kg, po and measured upto 7 hrs by HPLC/MS analysis; assay type: ADME, organism-based; settings: in vivo, dose 0.91 mg/kg
[26] = Half life of Wistar rat at 0.910 mg/kg, po and measured upto 7 hrs by HPLC/MS analysis; assay type: ADME, organism-based; settings: in vivo, dose 0.91 mg/kg
[27] = biological target: T1, Rho-associated protein kinase 2; assay: Inhibition of human recombinant ROCK2 assessed as inhibition constant by microfluidic mobility shift method

T1 sequence (O75116 whole entry): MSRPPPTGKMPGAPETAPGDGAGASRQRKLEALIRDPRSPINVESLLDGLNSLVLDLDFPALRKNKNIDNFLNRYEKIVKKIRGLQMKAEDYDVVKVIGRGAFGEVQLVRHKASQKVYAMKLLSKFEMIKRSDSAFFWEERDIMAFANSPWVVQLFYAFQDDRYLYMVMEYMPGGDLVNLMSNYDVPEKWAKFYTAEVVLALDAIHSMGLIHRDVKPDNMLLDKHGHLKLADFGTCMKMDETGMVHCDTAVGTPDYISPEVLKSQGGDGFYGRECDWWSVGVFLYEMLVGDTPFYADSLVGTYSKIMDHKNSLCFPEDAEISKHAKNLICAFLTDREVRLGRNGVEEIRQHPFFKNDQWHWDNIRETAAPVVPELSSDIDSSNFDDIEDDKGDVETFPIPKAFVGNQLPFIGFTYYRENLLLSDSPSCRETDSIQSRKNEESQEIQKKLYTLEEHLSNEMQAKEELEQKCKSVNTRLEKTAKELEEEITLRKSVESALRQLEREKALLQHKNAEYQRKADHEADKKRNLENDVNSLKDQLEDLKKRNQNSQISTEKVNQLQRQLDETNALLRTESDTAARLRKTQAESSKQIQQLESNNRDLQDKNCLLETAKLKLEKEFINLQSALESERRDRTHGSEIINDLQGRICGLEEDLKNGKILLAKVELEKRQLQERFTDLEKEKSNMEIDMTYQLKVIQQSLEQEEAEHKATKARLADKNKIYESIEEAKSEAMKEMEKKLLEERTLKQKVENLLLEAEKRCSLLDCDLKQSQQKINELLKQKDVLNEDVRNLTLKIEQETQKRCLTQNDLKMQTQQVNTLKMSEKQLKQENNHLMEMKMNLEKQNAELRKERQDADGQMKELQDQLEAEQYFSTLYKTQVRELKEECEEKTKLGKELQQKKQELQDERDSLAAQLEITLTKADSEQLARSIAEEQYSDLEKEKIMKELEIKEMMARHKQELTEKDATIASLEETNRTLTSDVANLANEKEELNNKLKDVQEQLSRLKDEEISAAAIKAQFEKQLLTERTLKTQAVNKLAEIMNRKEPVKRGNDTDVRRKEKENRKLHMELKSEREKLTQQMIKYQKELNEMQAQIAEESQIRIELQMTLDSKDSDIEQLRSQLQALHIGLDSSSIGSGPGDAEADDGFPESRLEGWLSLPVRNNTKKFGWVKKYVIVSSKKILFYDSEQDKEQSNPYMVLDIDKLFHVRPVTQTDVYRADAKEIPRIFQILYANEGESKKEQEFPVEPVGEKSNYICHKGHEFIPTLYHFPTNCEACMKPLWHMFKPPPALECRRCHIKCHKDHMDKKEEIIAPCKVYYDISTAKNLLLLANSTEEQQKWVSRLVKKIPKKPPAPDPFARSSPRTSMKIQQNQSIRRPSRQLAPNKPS
T2 sequence (Q13464 whole entry): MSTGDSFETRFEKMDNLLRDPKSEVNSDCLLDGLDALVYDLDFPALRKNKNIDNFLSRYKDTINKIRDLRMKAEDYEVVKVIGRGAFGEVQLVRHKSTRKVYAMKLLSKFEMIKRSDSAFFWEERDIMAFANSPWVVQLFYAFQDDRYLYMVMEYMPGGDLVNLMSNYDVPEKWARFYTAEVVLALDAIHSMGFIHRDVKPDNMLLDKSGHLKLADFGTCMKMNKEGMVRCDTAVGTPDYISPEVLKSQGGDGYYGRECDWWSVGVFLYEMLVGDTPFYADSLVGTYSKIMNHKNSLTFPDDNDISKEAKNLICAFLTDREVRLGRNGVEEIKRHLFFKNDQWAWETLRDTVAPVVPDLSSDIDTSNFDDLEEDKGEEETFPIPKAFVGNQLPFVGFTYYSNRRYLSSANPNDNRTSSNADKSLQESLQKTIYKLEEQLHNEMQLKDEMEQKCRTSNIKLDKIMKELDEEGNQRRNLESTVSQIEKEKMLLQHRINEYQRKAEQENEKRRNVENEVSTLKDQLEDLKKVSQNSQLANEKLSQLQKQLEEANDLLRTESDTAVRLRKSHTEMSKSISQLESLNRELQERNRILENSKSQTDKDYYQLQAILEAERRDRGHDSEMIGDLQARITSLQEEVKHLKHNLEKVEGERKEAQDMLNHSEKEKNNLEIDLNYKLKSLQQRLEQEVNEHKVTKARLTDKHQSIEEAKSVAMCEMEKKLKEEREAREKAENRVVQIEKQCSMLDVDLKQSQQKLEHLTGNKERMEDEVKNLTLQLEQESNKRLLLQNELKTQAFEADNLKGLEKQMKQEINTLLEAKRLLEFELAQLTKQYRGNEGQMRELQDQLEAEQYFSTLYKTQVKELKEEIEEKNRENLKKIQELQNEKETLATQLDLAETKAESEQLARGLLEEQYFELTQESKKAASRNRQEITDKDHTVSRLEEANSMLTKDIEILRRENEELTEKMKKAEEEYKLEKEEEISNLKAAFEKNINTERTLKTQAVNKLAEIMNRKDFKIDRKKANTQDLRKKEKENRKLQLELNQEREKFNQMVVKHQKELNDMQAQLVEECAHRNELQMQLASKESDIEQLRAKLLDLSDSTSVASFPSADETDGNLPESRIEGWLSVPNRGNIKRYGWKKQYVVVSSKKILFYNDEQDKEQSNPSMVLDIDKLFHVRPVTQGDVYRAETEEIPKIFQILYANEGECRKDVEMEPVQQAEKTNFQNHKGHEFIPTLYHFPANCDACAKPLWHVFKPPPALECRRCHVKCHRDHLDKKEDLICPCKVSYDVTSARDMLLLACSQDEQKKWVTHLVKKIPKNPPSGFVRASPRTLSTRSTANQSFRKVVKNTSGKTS
Chain of Nicotinamide phosphoribosyltransferase (P43490 whole entry): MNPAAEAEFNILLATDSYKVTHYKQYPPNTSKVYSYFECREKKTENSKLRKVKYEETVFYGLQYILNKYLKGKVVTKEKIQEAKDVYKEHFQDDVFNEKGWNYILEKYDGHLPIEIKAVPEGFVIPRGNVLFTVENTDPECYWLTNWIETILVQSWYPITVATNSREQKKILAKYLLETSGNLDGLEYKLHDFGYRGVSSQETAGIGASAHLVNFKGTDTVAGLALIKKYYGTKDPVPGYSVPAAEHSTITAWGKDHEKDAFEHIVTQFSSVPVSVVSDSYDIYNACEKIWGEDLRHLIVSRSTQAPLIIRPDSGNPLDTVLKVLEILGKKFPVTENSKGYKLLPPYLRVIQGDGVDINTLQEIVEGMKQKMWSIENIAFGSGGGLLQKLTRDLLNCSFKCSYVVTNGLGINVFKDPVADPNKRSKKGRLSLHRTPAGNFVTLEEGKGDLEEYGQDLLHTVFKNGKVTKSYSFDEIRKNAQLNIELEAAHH
Chain of Ribosomal protein S6 kinase alpha-1 (Q15418 whole entry): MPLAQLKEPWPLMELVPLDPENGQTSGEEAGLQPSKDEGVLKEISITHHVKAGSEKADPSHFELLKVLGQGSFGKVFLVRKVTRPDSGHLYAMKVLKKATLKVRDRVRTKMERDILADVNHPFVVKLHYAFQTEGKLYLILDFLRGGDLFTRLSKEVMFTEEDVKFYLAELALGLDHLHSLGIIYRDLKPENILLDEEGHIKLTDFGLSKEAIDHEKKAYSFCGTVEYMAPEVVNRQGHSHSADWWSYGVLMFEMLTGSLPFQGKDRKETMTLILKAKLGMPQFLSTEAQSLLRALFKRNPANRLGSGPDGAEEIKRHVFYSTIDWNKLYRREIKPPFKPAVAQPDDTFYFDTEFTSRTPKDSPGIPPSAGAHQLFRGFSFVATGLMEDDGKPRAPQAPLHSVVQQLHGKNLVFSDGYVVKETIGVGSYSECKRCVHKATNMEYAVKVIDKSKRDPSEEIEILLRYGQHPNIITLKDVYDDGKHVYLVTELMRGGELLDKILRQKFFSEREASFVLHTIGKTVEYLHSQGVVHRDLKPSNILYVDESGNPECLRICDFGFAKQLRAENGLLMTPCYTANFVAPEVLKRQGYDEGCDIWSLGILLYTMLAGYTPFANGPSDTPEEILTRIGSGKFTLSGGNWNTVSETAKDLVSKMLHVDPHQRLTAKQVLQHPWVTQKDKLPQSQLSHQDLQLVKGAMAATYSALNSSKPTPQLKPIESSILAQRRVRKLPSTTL
Chain of RAC-beta serine/threonine-protein kinase (P31751 whole entry): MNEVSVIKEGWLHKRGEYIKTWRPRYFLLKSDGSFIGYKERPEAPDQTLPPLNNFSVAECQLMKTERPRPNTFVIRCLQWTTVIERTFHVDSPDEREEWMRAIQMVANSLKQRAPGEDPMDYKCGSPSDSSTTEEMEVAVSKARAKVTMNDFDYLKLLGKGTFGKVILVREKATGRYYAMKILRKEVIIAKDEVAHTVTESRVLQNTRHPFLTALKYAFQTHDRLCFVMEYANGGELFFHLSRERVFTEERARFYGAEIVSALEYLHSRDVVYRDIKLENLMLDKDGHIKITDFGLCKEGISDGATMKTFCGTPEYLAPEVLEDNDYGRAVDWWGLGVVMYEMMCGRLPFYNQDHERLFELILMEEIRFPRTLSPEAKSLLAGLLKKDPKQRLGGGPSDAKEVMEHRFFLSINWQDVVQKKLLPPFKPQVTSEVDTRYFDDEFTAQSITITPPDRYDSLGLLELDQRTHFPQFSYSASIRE
Chain of RAC-alpha serine/threonine-protein kinase (P31749 whole entry): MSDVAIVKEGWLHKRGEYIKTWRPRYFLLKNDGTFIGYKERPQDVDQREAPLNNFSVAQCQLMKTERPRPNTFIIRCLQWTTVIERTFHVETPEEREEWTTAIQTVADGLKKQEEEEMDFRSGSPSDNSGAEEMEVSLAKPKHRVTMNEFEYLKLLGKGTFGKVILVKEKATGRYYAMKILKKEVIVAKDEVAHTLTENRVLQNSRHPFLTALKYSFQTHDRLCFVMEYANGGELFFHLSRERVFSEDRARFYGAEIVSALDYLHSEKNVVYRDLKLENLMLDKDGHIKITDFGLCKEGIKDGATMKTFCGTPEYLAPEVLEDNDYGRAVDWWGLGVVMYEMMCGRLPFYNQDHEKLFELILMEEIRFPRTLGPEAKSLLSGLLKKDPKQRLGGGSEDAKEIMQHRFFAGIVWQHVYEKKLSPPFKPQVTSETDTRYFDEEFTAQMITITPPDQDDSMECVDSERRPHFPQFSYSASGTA

SMILES: COc1cccc(CNC(=O)c2c[nH]c3cc(-c4cn[nH]c4)ccc23)c1
- IC50 [1]: < 1 nM
- IC50 [2]: 3340 nM

SMILES: O=C(NCc1c(Cl)cccc1Cl)Nc1ccc2[nH]ncc2c1
- IC50 [4]: 20 nM

SMILES: C[C@@H](N)c1ccc(C(=O)Nc2ccncc2)cc1
- IC50 [4]: 200 nM

SMILES: O=C(NCc1cccc(O)c1)Nc1nc(-c2ccncc2)cs1
- IC50 [5]: 14.5 nM

SMILES: C[C@H]1CNCCCN1S(=O)(=O)c1cccc2cncc(F)c12
- Activity (Mus musculus [6]): 23%
- Activity (Mus musculus [7]): 58.4%
- Activity (Mus musculus [8]): 41.9%

SMILES: NCc1ccc(Oc2ccc3c(c2)B(O)OC3)c(F)c1
- IC50 [9]: 540 nM
- IC50 [10]: 810 nM

SMILES: OCCOc1cccc(CN2CC[C@@H](Nc3cccc4cnccc34)C2)c1
- Ki [11]: 5 nM
- Ki [12]: 14 nM

SMILES: C[C@@H](N)[C@H]1CC[C@H](C(=O)Nc2ccnc3[nH]ccc23)CC1
- Ki [12]: 10 nM

SMILES: COc1cccc(CN(C(=O)c2n[nH]c3cc(-c4cn[nH]c4)ccc23)C2CC2)c1
- IC50 [1]: 6 nM
- IC50 [2]: > 20000 nM

SMILES: Nc1nc(Nc2ccc(Oc3ccc4[nH]ncc4c3)c(F)c2)cc(-c2ccncc2)n1
- IC50 [13]: 20 nM

SMILES: COc1cccc(CN(CCN(C)C)C(=O)c2n[nH]c3cc(-c4cn[nH]c4)ccc23)c1
- IC50 [1]: < 1 nM
- IC50 [2]: 184 nM

SMILES: COc1cc(-c2cn[nH]c2)ccc1NC(=O)CCc1ccccc1
- IC50 [15]: 84 nM

SMILES: O=C(Nc1ccc(-c2n[nH]c(=O)c3c2CCCC3)cc1)N1Cc2ccc(F)cc2C1
- IC50 [14]: 45 nM

SMILES: Cc1nnnn1-c1ccc(C(=O)NCc2cccc(C(=O)NC3=NC4CCN(C)CC4S3)c2)cc1 (stereo unspecified)
- IC50 [4]: 6 nM

SMILES: O=C(OCC1CCCO1)c1cccc(CN2CCCC(Nc3ccc4[nH]ncc4c3)C2)c1 (stereo unspecified)
- half-life at 1 µM [16]: < 5 min
- IC50 [17]: 3 nM
- IC50 [18]: 240 nM

SMILES: COc1cccc(CNC(=O)c2n[nH]c3ccc(-c4cn[nH]c4)cc23)c1
- IC50 [1]: 67 nM

SMILES: NC(=O)c1cc(F)c(N[C@H]2CC[C@H](N)CC2)cc1F
- IC50 [4]: 26 nM

SMILES: Nc1nc(Nc2ccc(Oc3ccc4[nH]ncc4c3)c(F)c2)cc(N2C[C@@H]3CCCN[C@@H]3C2)n1
- IC50 [13]: 6 nM

SMILES: Cc1c[nH]c2nccc(Oc3c(F)cc(Nc4cc(Cl)nc(N)n4)cc3F)c12 [BAY-549]
- bioavailability [24]: 48%
- CL/F [25]: 28.3 mL/min/kg
- half-life [26]: 1.2 h

SMILES: O=c1[nH]ccc2cc(OC3CCNCC3)ccc12 [SAR-407899 FREE BASE]
- Ki [27]: 36 nM

More lines, now with the values ahead:

- IC50 [1]: 1.6 nM
- IC50 [2]: 6740 nM
SMILES: COc1cccc(CNC(=O)c2cc3ccc(-c4cn[nH]c4)cc3[nH]2)c1

- IC50 [2]: 1510 nM
SMILES: COc1cccc(CNC(=O)c2[nH]c3cc(-c4cn[nH]c4)ccc3c2CN(C)C)c1

- IC50 [3]: 85 nM
SMILES: O=C(Nc1ccc(-c2ccncc2)cc1)N[C@@H](CO)c1ccccc1

- IC50 [2]: > 20000 nM
SMILES: O=C(Nc1ccc(-c2cn[nH]c2)cc1)OCc1ccccc1

- IC50 [9]: 340 nM
- IC50 [10]: 730 nM
SMILES: NCc1ccc(Oc2ccc3c(c2)B(O)OC3)c(Cl)c1

- IC50 [1]: 4 nM
- IC50 [2]: 1530 nM
SMILES: COc1cccc(CNC(=O)c2nc3ccc(-c4cn[nH]c4)cc3[nH]2)c1

- IC50 [4]: 1 nM
SMILES: N#Cc1c[nH]c2nccc(Oc3c(F)cc(Nc4ccnc(N)n4)cc3F)c12

- IC50 [14]: 44 nM
SMILES: O=C(Nc1ccc(-c2n[nH]c(=O)c3c2CCCC3)cc1)N1Cc2ccc(Cl)cc2C1

- IC50 [1]: 17 nM
- IC50 [2]: > 20000 nM
SMILES: COc1cccc(CNC(=O)c2cc3cc(-c4cn[nH]c4)ccc3[nH]2)c1

- IC50 [4]: 9 nM
SMILES: O=C(Cc1ccccc1Cl)Nc1ccc(-c2cn[nH]c2)cc1OCCN1CCCC1

- IC50 [1]: < 1 nM
- IC50 [2]: 3340 nM
SMILES: COc1cccc(CNC(=O)c2n[nH]c3cc(-c4cn[nH]c4)ccc23)c1

- IC50 [4]: 33 nM
SMILES: O=C(Nc1ccc(-c2cn[nH]c2)cc1)[C@@H]1CNC[C@H]1c1ccccc1

- IC50 [1]: < 1 nM
- IC50 [2]: 1520 nM
SMILES: COc1cccc(CNC(=O)c2nn(C)c3cc(-c4cn[nH]c4)ccc23)c1

- IC50 [19]: 20 nM
SMILES: COc1nc(Nc2ccc3[nH]ncc3c2)nc(N2CCNCC2)n1

- IC50 [1]: 67 nM
SMILES: COc1cccc(CNC(=O)c2c[nH]c3ccc(-c4cn[nH]c4)cc23)c1

- IC50 [9]: 220 nM
- IC50 [10]: 250 nM
SMILES: Cc1c(Oc2ccc(CN)cc2F)ccc2c1B(O)OC2

- IC50 [20]: 402 nM
- IC50 [5]: < 10 nM
- IC50 [4]: < 10 nM
- IC50 [21]: < 10 nM
- IC50 [22]: 85 nM
- IC50 [2]: < 10 nM
- IC50 [23]: 38 nM
SMILES: NC[C@@](O)(c1ccc(Cl)cc1)c1ccc(-c2cn[nH]c2)cc1 [AT-13148]
